# Biological target: T1, C4760 DNA polymerase (a variant of DPO4) (Saccharolobus solfataricus, UniProt Q97W02, A155G/A42V/D156R/D292Y/D294N/E291S/E324K/E325K/E327K/E63R/E79L/G187P/G299W/I153V/I189F/I248T/I295S/K152A/K317Q/K321Q/K56Y/K78D/L293W/M76W/N188Y/P184Q/Q82W/Q83G/R300S/S297Y/S86E/T290K/T301W/V289W/V296Q)
# T1 construct: Eco or Kod SSB in reaction as additive
# T1 sequence (Q97W02 1-340 A155G/A42V/D156R/D292Y/D294N/E291S/E324K/E325K/E327K/E63R/E79L/G187P/G299W/I153V/I189F/I248T/I295S/K152A/K317Q/K321Q/K56Y/K78D/L293W/M76W/N188Y/P184Q/Q82W/Q83G/R300S/S297Y/S86E/T290K/T301W/V289W/V296Q): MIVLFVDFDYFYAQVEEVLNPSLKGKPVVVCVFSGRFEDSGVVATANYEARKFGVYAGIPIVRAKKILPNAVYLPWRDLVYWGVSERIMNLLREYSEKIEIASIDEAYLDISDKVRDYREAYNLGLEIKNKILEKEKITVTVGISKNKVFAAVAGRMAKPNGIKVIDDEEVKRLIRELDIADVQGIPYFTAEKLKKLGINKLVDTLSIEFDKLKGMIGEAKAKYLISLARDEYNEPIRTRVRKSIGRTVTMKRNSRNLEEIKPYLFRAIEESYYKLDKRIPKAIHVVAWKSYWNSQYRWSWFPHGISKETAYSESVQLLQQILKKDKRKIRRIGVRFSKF
# Test: Primer extension on 411mer amplicon template with C4760 polymerase, gel
# Type: biochemical, Sulfolobus solfataricus
# Description: PEM activity of compound 15 was tested in primer extension assays using a 411mer amplicon template. Primer extension reactions included the following reagents: 50 Mm TrisCl, 200 Mm NH40ac, 20% PEG8K, 5% NMS, 3 nmol PP-60.20, 2 Mm MnCl2, 2 μg Kod single-strand binding protein (SSB), 1 M urea, 250 pmol each XNTP, 1 pmol template, 1 pmol [COMPOUND LEFT OUT] primer, 1.2 μg purified recombinant C4760 DNA polymerase (a variant of DPO4, see SEQ ID NO: 2), and 2 (lane 2) or 3 (lane 3) Mm PEM. 10 μL primer extension reactions were run for 20 minutes at 37 °C and reaction products were analyzed by gel electrophoresis. A representative gel showing primer extension products is presented in FIG. 12 (the position of a 277mer is indicated by the arrow). […] Remarkably, the polymerase is completely dependent upon the addition of PEM to the reaction in order to be capable of synthesizing these lengthy Xpandomer products. Even longer extension products may be obtained by optimizing various reaction parameters, e.g., extension time and/or concentrations of various additives.
# PEM activity of compound 19, was tested in primer extension assays using the 411mer amplicon template. […] 10 μL primer extension reactions were run for 30 minutes at 37 °C and reaction products were analyzed by gel electrophoresis. […]
SMILES,"XNTP polymerization relative to compound 14 (2 or 3 Mm PEM, 20 minutes at 37 °C, FIG. 12)","XNTP polymerization relative to compound 14 (0.5, 1, or 1.5 Mm PEM, 30 minutes at 37 °C, FIG. 14)"
"CCOC(=O)c1cc(-c2cn(-c3ccc(O)c(C(=O)O)c3)nn2)nc(-c2cn(-c3ccc(O)c(C(=O)O)c3)nn2)c1 [Compound 15, 5,5′-((4-(ethoxycarbonyl)pyridine-2,6-diyl)bis(1H-1,2,3-triazole-4,1-diyl))bis(2-hydroxybenzoic acid)]",comparable to that of compound 14,–
"NC(=O)c1cc(-c2cn(-c3ccc(C(=O)O)c(O)c3)nn2)nc(-c2cn(-c3ccc(C(=O)O)c(O)c3)nn2)c1 [Compound 19, 4,4′-((4-carbamoylpyridine-2,6-diyl)bis(1H-1,2,3-triazole-4,1-diyl))bis(2-hydroxybenzoic acid)]",–,less efficient than that of compound 14
